{"source": "patent US7465798B2", "about": "“Methods and compositions for selectin inhibition” (Wyeth, priority 2003, dated 2008)", "target": "T1, human P-selectin (Homo sapiens, UniProt P16109)", "T1 construct": "truncated form of human P-selectin comprised of the lectin and EGF domains (P-LE)", "T1 sequence (P16109 42-198)": "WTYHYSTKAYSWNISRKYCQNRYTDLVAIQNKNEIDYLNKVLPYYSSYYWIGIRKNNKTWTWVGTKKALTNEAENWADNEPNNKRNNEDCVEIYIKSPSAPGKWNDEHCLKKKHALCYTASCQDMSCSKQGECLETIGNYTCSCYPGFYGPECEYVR", "assay": "Biacore inhibition of P-selectin binding to PSGL-1 (P-LE to immobilized SGP-3)", "conditions": "at 1 mM", "method": "Compounds of the invention can be assayed for selectin inhibitory activity using any of the procedures known in the art. One convenient procedure is the determination of IC50 values for inhibition of P-selectin binding to P-selectin glycoprotein ligand-1 (PSGL-1) using Biacore.\nThe Biacore 3000 is an instrument that uses surface plasmon resonance to detect binding of a solution phase analyte to an immobilized ligand on a sensor chip surface. The analyte sample is injected under flow using a microfluidic system. Binding of analyte to ligand causes a change in the angle of refracted light at the surface of the sensor chip, measured by the Biacore instrument in resonance units (RUs).\nSGP-3 is a purified sulfoglycopeptide form of human PSGL-1 that contains the P-selectin binding determinants (See Somers et al., 2000, Cell 103, 467-479). SGP-3 was biotinylated via amine chemistry at a unique C-terminal lysine residue and immobilized on streptavidin-coated SA sensor chip. […]\nThe Biacore assay measures the signal in RU produced by binding of P-LE to SGP-3 in the presence and absence of inhibitors. Percent inhibition of binding is calculated by dividing the inhibited signal by the uninhibited signal subtracting this value from one then multiplying by one hundred. […] The data from this titration are plotted, RU values vs. concentration, and the IC50 is determined by extrapolation from the plot. […]", "data": [{"molecule": "CC1(C)[C@@H](O[C@H]2O[C@H](C(=O)O)[C@@H](O)[C@H](O)[C@H]2O[C@@H]2O[C@H](C(=O)O)[C@@H](O)[C@H](O)[C@H]2O)CC[C@]2(C)[C@H]3C(=O)C=C4[C@@H]5C[C@@](C)(C(=O)O)CC[C@]5(C)CC[C@@]4(C)[C@]3(C)CC[C@@H]12", "note": "[Glycerrhizzin]", "values": [{"measurement": "percent inhibition of binding (positive control)", "result": 50, "unit": "%"}]}]}
